# Experimental data taken from ChEMBL document CHEMBL3885881, “DrugMatrix”.
# Species: Rattus norvegicus
# Assay: DrugMatrix - Regimen: Daily Repeat
# Format: toxicity, organism-based, Sprague-Dawley
# Set-up: regimen Daily Repeat, gender Male, age 6-8 weeks
# Conditions: in vivo, po, route oral GAVAGE, vehicle 100 % WATER; for ABSOLUTE BASOPHIL / ABSOLUTE EOSINOPHIL / ABSOLUTE LYMPHOCYTE / ABSOLUTE MONOCYTE / ABSOLUTE SEGMENTED NEUTROPHIL / BASOPHIL / EOSINOPHIL / ERYTHROCYTE COUNT / HEMATOCRIT / HEMOGLOBIN / LEUKOCYTE COUNT / LYMPHOCYTE / MEAN CORPUSCULAR HEMOGLOBIN / MEAN CORPUSCULAR HEMOGLOBIN CONCENTRATION / MEAN CORPUSCULAR VOLUME / MONOCYTE / NEUTROPHIL / NUCLEATED RED BLOOD CELLS / PLATELET COUNT: tissue Blood; for ALANINE AMINOTRANSFERASE / ALBUMIN / ALKALINE PHOSPHATASE / ASPARTATE AMINOTRANSFERASE / BLOOD UREA NITROGEN / CARBON DIOXIDE / CHLORIDE / CHOLESTEROL / CREATINE PHOSPHOKINASE / CREATININE / GLUCOSE / LACTATE DEHYDROGENASE / LIPASE / PHOSPHORUS / POTASSIUM / SODIUM / TOTAL BILIRUBIN / TOTAL PROTEIN / URIC ACID: tissue Plasma
# [1] = 0 mg/kg, 72 h, dose level Control, time 3 day
# [2] = 0 mg/kg, 120 h, dose level Control, time 5 day
# [3] = 45 mg/kg, 72 h, dose level Low, time 3 day
# [4] = 45 mg/kg, 120 h, dose level Low, time 5 day
smiles,measurement,setting,value
CCOC(N)=O,ABSOLUTE BASOPHIL,[1],0 CELLS/uL
same,ABSOLUTE EOSINOPHIL,[1],123.17 CELLS/uL
same,ABSOLUTE LYMPHOCYTE,[1],12677.83 CELLS/uL
same,ABSOLUTE MONOCYTE,[1],66.17 CELLS/uL
same,ABSOLUTE SEGMENTED NEUTROPHIL,[1],1149.5 CELLS/uL
same,BASOPHIL,[1],0%
same,EOSINOPHIL,[1],0.83%
same,ERYTHROCYTE COUNT,[1],5.26 x10E6/uL
same,HEMATOCRIT,[1],33.07%
same,HEMOGLOBIN,[1],13.43 G/DL
same,LEUKOCYTE COUNT,[1],14.02 x10E3/uL
same,LYMPHOCYTE,[1],90.17%
same,MEAN CORPUSCULAR HEMOGLOBIN,[1],25.62 pg
same,MEAN CORPUSCULAR HEMOGLOBIN CONCENTRATION,[1],40.65 G/DL
same,MEAN CORPUSCULAR VOLUME,[1],63 fL
same,MONOCYTE,[1],0.5%
same,NEUTROPHIL,[1],8.5%
same,NUCLEATED RED BLOOD CELLS,[1],0.17 /100WBC
same,PLATELET COUNT,[1],1142.83 x10E3/uL
same,ALANINE AMINOTRANSFERASE,[1],45.17 u/L
same,ALBUMIN,[1],3.78 G/DL
same,ALKALINE PHOSPHATASE,[1],340.17 u/L
same,ASPARTATE AMINOTRANSFERASE,[1],77.33 u/L
same,BLOOD UREA NITROGEN,[1],14.67 mg/dL
same,CARBON DIOXIDE,[1],28.67 mmol/L
same,CHLORIDE,[1],101.17 MEQ/L
same,CHOLESTEROL,[1],77.67 mg/dL
same,CREATINE PHOSPHOKINASE,[1],263.67 u/L
same,CREATININE,[1],0.15 mg/dL
same,GLUCOSE,[1],169.33 mg/dL
same,LACTATE DEHYDROGENASE,[1],230 u/L
same,LIPASE,[1],9.67 u/L
same,PHOSPHORUS,[1],11.8 mg/dL
same,POTASSIUM,[1],5.91 MEQ/L
same,SODIUM,[1],142.88 MEQ/L
same,TOTAL BILIRUBIN,[1],0.22 mg/dL
same,TOTAL PROTEIN,[1],5.7 G/DL
same,URIC ACID,[1],1.35 mg/dL
same,ABSOLUTE BASOPHIL,[2],0 CELLS/uL
same,ABSOLUTE EOSINOPHIL,[2],125 CELLS/uL
same,ABSOLUTE LYMPHOCYTE,[2],13809 CELLS/uL
same,ABSOLUTE MONOCYTE,[2],351 CELLS/uL
same,ABSOLUTE SEGMENTED NEUTROPHIL,[2],1581.67 CELLS/uL
same,BASOPHIL,[2],0%
same,EOSINOPHIL,[2],0.67%
same,ERYTHROCYTE COUNT,[2],5.53 x10E6/uL
same,HEMATOCRIT,[2],34.83%
same,HEMOGLOBIN,[2],13.9 G/DL
same,LEUKOCYTE COUNT,[2],15.87 x10E3/uL
same,LYMPHOCYTE,[2],87.5%
same,MEAN CORPUSCULAR HEMOGLOBIN,[2],25.25 pg
same,MEAN CORPUSCULAR HEMOGLOBIN CONCENTRATION,[2],40.08 G/DL
same,MEAN CORPUSCULAR VOLUME,[2],63.05 fL
same,MONOCYTE,[2],2.17%
same,NEUTROPHIL,[2],9.67%
same,NUCLEATED RED BLOOD CELLS,[2],0 /100WBC
same,PLATELET COUNT,[2],1044 x10E3/uL
same,ALANINE AMINOTRANSFERASE,[2],50.67 u/L
same,ALBUMIN,[2],4.33 G/DL
same,ALKALINE PHOSPHATASE,[2],395 u/L
same,ASPARTATE AMINOTRANSFERASE,[2],86 u/L
same,BLOOD UREA NITROGEN,[2],15.33 mg/dL
same,CARBON DIOXIDE,[2],29.33 mmol/L
same,CHLORIDE,[2],101.5 MEQ/L
same,CHOLESTEROL,[2],71.33 mg/dL
same,CREATINE PHOSPHOKINASE,[2],323.17 u/L
same,CREATININE,[2],0.18 mg/dL
same,GLUCOSE,[2],145.67 mg/dL
same,LACTATE DEHYDROGENASE,[2],389.5 u/L
same,LIPASE,[2],9.83 u/L
same,PHOSPHORUS,[2],11.35 mg/dL
same,POTASSIUM,[2],6.39 MEQ/L
same,SODIUM,[2],142.77 MEQ/L
same,TOTAL BILIRUBIN,[2],0.18 mg/dL
same,TOTAL PROTEIN,[2],6.1 G/DL
same,URIC ACID,[2],1.52 mg/dL
same,ABSOLUTE BASOPHIL,[3],0 CELLS/uL
same,ABSOLUTE EOSINOPHIL,[3],0 CELLS/uL
same,ABSOLUTE LYMPHOCYTE,[3],12480 CELLS/uL
same,ABSOLUTE MONOCYTE,[3],82.67 CELLS/uL
same,ABSOLUTE SEGMENTED NEUTROPHIL,[3],1104 CELLS/uL
same,BASOPHIL,[3],0%
same,EOSINOPHIL,[3],0%
same,ERYTHROCYTE COUNT,[3],5.25 x10E6/uL
same,HEMATOCRIT,[3],34.27%
same,HEMOGLOBIN,[3],13.87 G/DL
same,LEUKOCYTE COUNT,[3],13.67 x10E3/uL
same,LYMPHOCYTE,[3],91.33%
same,MEAN CORPUSCULAR HEMOGLOBIN,[3],26.43 pg
same,MEAN CORPUSCULAR HEMOGLOBIN CONCENTRATION,[3],40.47 G/DL
same,MEAN CORPUSCULAR VOLUME,[3],65.23 fL
same,MONOCYTE,[3],0.67%
same,NEUTROPHIL,[3],8%
same,NUCLEATED RED BLOOD CELLS,[3],0.33 /100WBC
same,PLATELET COUNT,[3],1224 x10E3/uL
same,ALANINE AMINOTRANSFERASE,[3],48.67 u/L
same,ALBUMIN,[3],3.73 G/DL
same,ALKALINE PHOSPHATASE,[3],327 u/L
same,ASPARTATE AMINOTRANSFERASE,[3],72 u/L
same,BLOOD UREA NITROGEN,[3],14 mg/dL
same,CARBON DIOXIDE,[3],31.33 mmol/L
same,CHLORIDE,[3],100.67 MEQ/L
same,CHOLESTEROL,[3],75.67 mg/dL
same,CREATINE PHOSPHOKINASE,[3],181.67 u/L
same,CREATININE,[3],0.14 mg/dL
same,GLUCOSE,[3],154 mg/dL
same,LACTATE DEHYDROGENASE,[3],151.67 u/L
same,LIPASE,[3],10 u/L
same,PHOSPHORUS,[3],12.13 mg/dL
same,POTASSIUM,[3],7.17 MEQ/L
same,SODIUM,[3],142.87 MEQ/L
same,TOTAL BILIRUBIN,[3],0.17 mg/dL
same,TOTAL PROTEIN,[3],5.53 G/DL
same,URIC ACID,[3],1.63 mg/dL
same,ABSOLUTE BASOPHIL,[4],0 CELLS/uL
same,ABSOLUTE EOSINOPHIL,[4],0 CELLS/uL
same,ABSOLUTE LYMPHOCYTE,[4],10640.67 CELLS/uL
same,ABSOLUTE MONOCYTE,[4],292.67 CELLS/uL
same,ABSOLUTE SEGMENTED NEUTROPHIL,[4],1133.33 CELLS/uL
same,BASOPHIL,[4],0%
same,EOSINOPHIL,[4],0%
same,ERYTHROCYTE COUNT,[4],5.57 x10E6/uL
same,HEMATOCRIT,[4],35.5%
same,HEMOGLOBIN,[4],14.37 G/DL
same,LEUKOCYTE COUNT,[4],12.07 x10E3/uL
same,LYMPHOCYTE,[4],88.67%
same,MEAN CORPUSCULAR HEMOGLOBIN,[4],25.77 pg
same,MEAN CORPUSCULAR HEMOGLOBIN CONCENTRATION,[4],40.47 G/DL
same,MEAN CORPUSCULAR VOLUME,[4],63.8 fL
same,MONOCYTE,[4],2.33%
same,NEUTROPHIL,[4],9%
same,NUCLEATED RED BLOOD CELLS,[4],0 /100WBC
same,PLATELET COUNT,[4],1349.67 x10E3/uL
same,ALANINE AMINOTRANSFERASE,[4],45 u/L
same,ALBUMIN,[4],4.53 G/DL
same,ALKALINE PHOSPHATASE,[4],393.33 u/L
same,ASPARTATE AMINOTRANSFERASE,[4],72 u/L
same,BLOOD UREA NITROGEN,[4],14.67 mg/dL
same,CARBON DIOXIDE,[4],33 mmol/L
same,CHLORIDE,[4],101 MEQ/L
same,CHOLESTEROL,[4],75 mg/dL
same,CREATINE PHOSPHOKINASE,[4],138.67 u/L
same,CREATININE,[4],0.19 mg/dL
same,GLUCOSE,[4],156.33 mg/dL
same,LACTATE DEHYDROGENASE,[4],85.67 u/L
same,LIPASE,[4],10 u/L
same,PHOSPHORUS,[4],11.27 mg/dL
same,POTASSIUM,[4],6.72 MEQ/L
same,SODIUM,[4],144.8 MEQ/L
same,TOTAL BILIRUBIN,[4],0.23 mg/dL
same,TOTAL PROTEIN,[4],6.3 G/DL
same,URIC ACID,[4],1.6 mg/dL
